{"source": "patent US20240261258A1", "about": "“Presurgical Perineural Administration of Resiniferatoxin For Reduction of Post-Operative Pain” (Sorrento Therapeutics, Inc., priority 2021, published 2024)", "system": "healthy dogs undergoing TPLO surgery", "experiment": "Algometer measurements on the surgical site", "format": "in vivo, dog", "protocol": "The injection site of RTX or local anesthetic was evaluated by visual examination (normal, red, swollen) and palpation (no pain, mild, severe). The surgical site was evaluated by visual examination (normal, red, swollen) and with the aid of an algometer. With the dog in lateral recumbency, the tip of the algometer was placed on the surgical site and pressure was manually applied until the animal moved the leg. During the baseline data collection, several measurements were taken until 3 measurements were within ±1 Newton (N). The number recorded corresponded to the average of these 3 values. After surgery, the force was applied only once. Data were collected from both the left (treated) and the right (non-treated) hindlimbs.\nMean plus or minus the standard deviation (±SD) force in Newton was recorded at the pressure applied on the surgical incision when the subject moved the leg from the algometer. The left side was the treated stifle.", "data": [{"smiles": "C=C(C)[C@]12C[C@@H](C)[C@@]34O[C@](Cc5ccccc5)(O[C@@H]1[C@@H]3C=C(COC(=O)Cc1ccc(O)c(OC)c1)C[C@]1(O)C(=O)C(C)=C[C@@H]41)O2", "note": "[RTX, resiniferatoxin]", "values": [{"measurement": "Algometer force on surgical site when the dog moved the leg (mean ± SD)", "setting": "Baseline, L (treated) hindlimb, Group 2 Low, 6.25 μg", "value": "6.2 ± 2.3", "unit": "Newton"}, {"measurement": "Algometer force on surgical site when the dog moved the leg (mean ± SD)", "setting": "Baseline, L (treated) hindlimb, Group 3 Local, 50 μg", "value": "5.7 ± 2.5", "unit": "Newton"}, {"measurement": "Algometer force on surgical site when the dog moved the leg (mean ± SD)", "setting": "Baseline, R (non-treated) hindlimb, Group 1 High, 25 μg", "value": "7.1 ± 3.7", "unit": "Newton"}, {"measurement": "Algometer force on surgical site when the dog moved the leg (mean ± SD)", "setting": "Baseline, R (non-treated) hindlimb, Group 2 Low, 6.25 μg", "value": "7.0 ± 2.3", "unit": "Newton"}, {"measurement": "Algometer force on surgical site when the dog moved the leg (mean ± SD)", "setting": "Baseline, R (non-treated) hindlimb, Group 3 Local, 50 μg", "value": "8.5 ± 2.4", "unit": "Newton"}, {"measurement": "Algometer force on surgical site when the dog moved the leg (mean ± SD)", "setting": "Day 1, L (treated) hindlimb, Group 1 High, 25 μg", "value": "7.4 ± 5.9", "unit": "Newton"}, {"measurement": "Algometer force on surgical site when the dog moved the leg (mean ± SD)", "setting": "Day 1, L (treated) hindlimb, Group 2 Low, 6.25 μg", "value": "5.0 ± 2.1", "unit": "Newton"}, {"measurement": "Algometer force on surgical site when the dog moved the leg (mean ± SD)", "setting": "Day 1, L (treated) hindlimb, Group 3 Local, 50 μg", "value": "9.2 ± 2.1", "unit": "Newton"}, {"measurement": "Algometer force on surgical site when the dog moved the leg (mean ± SD)", "setting": "Day 1, R (non-treated) hindlimb, Group 1 High, 25 μg", "value": "6.1 ± 2.3", "unit": "Newton"}, {"measurement": "Algometer force on surgical site when the dog moved the leg (mean ± SD)", "setting": "Day 1, R (non-treated) hindlimb, Group 2 Low, 6.25 μg", "value": "3.8 ± 1.9", "unit": "Newton"}, {"measurement": "Algometer force on surgical site when the dog moved the leg (mean ± SD)", "setting": "Day 1, R (non-treated) hindlimb, Group 3 Local, 50 μg", "value": "9.6 ± 6.3", "unit": "Newton"}, {"measurement": "Algometer force on surgical site when the dog moved the leg (mean ± SD)", "setting": "Day 2, L (treated) hindlimb, Group 1 High, 25 μg", "value": "5.4 ± 3.3", "unit": "Newton"}, {"measurement": "Algometer force on surgical site when the dog moved the leg (mean ± SD)", "setting": "Day 2, L (treated) hindlimb, Group 2 Low, 6.25 μg", "value": "5.0 ± 2.7", "unit": "Newton"}, {"measurement": "Algometer force on surgical site when the dog moved the leg (mean ± SD)", "setting": "Day 2, L (treated) hindlimb, Group 3 Local, 50 μg", "value": "8.5 ± 1.5", "unit": "Newton"}, {"measurement": "Algometer force on surgical site when the dog moved the leg (mean ± SD)", "setting": "Day 2, R (non-treated) hindlimb, Group 1 High, 25 μg", "value": "4.9 ± 2.1", "unit": "Newton"}, {"measurement": "Algometer force on surgical site when the dog moved the leg (mean ± SD)", "setting": "Day 2, R (non-treated) hindlimb, Group 2 Low, 6.25 μg", "value": "3.7 ± 2.0", "unit": "Newton"}, {"measurement": "Algometer force on surgical site when the dog moved the leg (mean ± SD)", "setting": "Day 2, R (non-treated) hindlimb, Group 3 Local, 50 μg", "value": "6.5 ± 3.5", "unit": "Newton"}, {"measurement": "Algometer force on surgical site when the dog moved the leg (mean ± SD)", "setting": "Day 3, L (treated) hindlimb, Group 1 High, 25 μg", "value": "5.3 ± 1.5", "unit": "Newton"}, {"measurement": "Algometer force on surgical site when the dog moved the leg (mean ± SD)", "setting": "Day 3, L (treated) hindlimb, Group 2 Low, 6.25 μg", "value": "5.9 ± 4.2", "unit": "Newton"}, {"measurement": "Algometer force on surgical site when the dog moved the leg (mean ± SD)", "setting": "Day 3, L (treated) hindlimb, Group 3 Local, 50 μg", "value": "7.7 ± 2.0", "unit": "Newton"}, {"measurement": "Algometer force on surgical site when the dog moved the leg (mean ± SD)", "setting": "Day 3, R (non-treated) hindlimb, Group 1 High, 25 μg", "value": "7.1 ± 1.8", "unit": "Newton"}, {"measurement": "Algometer force on surgical site when the dog moved the leg (mean ± SD)", "setting": "Day 3, R (non-treated) hindlimb, Group 2 Low, 6.25 μg", "value": "6.3 ± 1.5", "unit": "Newton"}, {"measurement": "Algometer force on surgical site when the dog moved the leg (mean ± SD)", "setting": "Day 3, R (non-treated) hindlimb, Group 3 Local, 50 μg", "value": "6.5 ± 3.4", "unit": "Newton"}, {"measurement": "Algometer force on surgical site when the dog moved the leg (mean ± SD)", "setting": "Day 14, L (treated) hindlimb, Group 1 High, 25 μg", "value": "5.3 ± 3.9", "unit": "Newton"}, {"measurement": "Algometer force on surgical site when the dog moved the leg (mean ± SD)", "setting": "Day 14, L (treated) hindlimb, Group 2 Low, 6.25 μg", "value": "2.9 ± 1.2", "unit": "Newton"}, {"measurement": "Algometer force on surgical site when the dog moved the leg (mean ± SD)", "setting": "Day 14, L (treated) hindlimb, Group 3 Local, 50 μg", "value": "6.6 ± 4.2", "unit": "Newton"}, {"measurement": "Algometer force on surgical site when the dog moved the leg (mean ± SD)", "setting": "Day 14, R (non-treated) hindlimb, Group 1 High, 25 μg", "value": "5.0 ± 2.3", "unit": "Newton"}, {"measurement": "Algometer force on surgical site when the dog moved the leg (mean ± SD)", "setting": "Day 14, R (non-treated) hindlimb, Group 2 Low, 6.25 μg", "value": "5.2 ± 1.5", "unit": "Newton"}, {"measurement": "Algometer force on surgical site when the dog moved the leg (mean ± SD)", "setting": "Day 14, R (non-treated) hindlimb, Group 3 Local, 50 μg", "value": "4.7 ± 3.5", "unit": "Newton"}, {"measurement": "Algometer force on surgical site when the dog moved the leg (mean ± SD)", "setting": "Day 28, L (treated) hindlimb, Group 1 High, 25 μg", "value": "5.8 ± 2.4", "unit": "Newton"}, {"measurement": "Algometer force on surgical site when the dog moved the leg (mean ± SD)", "setting": "Day 28, L (treated) hindlimb, Group 2 Low, 6.25 μg", "value": "4.5 ± 3.9", "unit": "Newton"}, {"measurement": "Algometer force on surgical site when the dog moved the leg (mean ± SD)", "setting": "Day 28, L (treated) hindlimb, Group 3 Local, 50 μg", "value": "4.4 ± 2.6", "unit": "Newton"}, {"measurement": "Algometer force on surgical site when the dog moved the leg (mean ± SD)", "setting": "Day 28, R (non-treated) hindlimb, Group 1 High, 25 μg", "value": "4.6 ± 3.5", "unit": "Newton"}, {"measurement": "Algometer force on surgical site when the dog moved the leg (mean ± SD)", "setting": "Day 28, R (non-treated) hindlimb, Group 2 Low, 6.25 μg", "value": "2.7 ± 2.1", "unit": "Newton"}, {"measurement": "Algometer force on surgical site when the dog moved the leg (mean ± SD)", "setting": "Day 28, R (non-treated) hindlimb, Group 3 Local, 50 μg", "value": "5.0 ± 1.9", "unit": "Newton"}, {"measurement": "Algometer force on surgical site when the dog moved the leg (mean ± SD)", "setting": "Day 56, L (treated) hindlimb, Group 1 High, 25 μg", "value": "7.0 ± 3.1", "unit": "Newton"}, {"measurement": "Algometer force on surgical site when the dog moved the leg (mean ± SD)", "setting": "Day 56, L (treated) hindlimb, Group 2 Low, 6.25 μg", "value": "4.9 ± 1.8", "unit": "Newton"}, {"measurement": "Algometer force on surgical site when the dog moved the leg (mean ± SD)", "setting": "Day 56, L (treated) hindlimb, Group 3 Local, 50 μg", "value": "10.9 ± 8.7", "unit": "Newton"}, {"measurement": "Algometer force on surgical site when the dog moved the leg (mean ± SD)", "setting": "Day 56, R (non-treated) hindlimb, Group 1 High, 25 μg", "value": "6.3 ± 1.2", "unit": "Newton"}, {"measurement": "Algometer force on surgical site when the dog moved the leg (mean ± SD)", "setting": "Day 56, R (non-treated) hindlimb, Group 2 Low, 6.25 μg", "value": "5.7 ± 1.7", "unit": "Newton"}, {"measurement": "Algometer force on surgical site when the dog moved the leg (mean ± SD)", "setting": "Day 56, R (non-treated) hindlimb, Group 3 Local, 50 μg", "value": "9.0 ± 4.6", "unit": "Newton"}]}]}
